Measured values as given in publication PMC11087268, “A folate inhibitor exploits metabolic differences in Pseudomonas aeruginosa for narrow-spectrum targeting” (Nature Microbiology, 2024).
“And” between values parts separate entries of the source, which are not always exact repeats. Equal values may be shown once. Read-outs that look alike come from different tables or passages of the source. One block for each compound: values may come before it.

How the values were obtained:
sheep red blood cells = assay: Haemolysis; assay type: cell-based; conditions: 1 h, vs Triton X-100 100% lysis
Procedure: (§1) Samples were treated at 37 °C with shaking for 1 h and then centrifuged. Supernatants were collected and absorbances were measured at 405 nm in a Tecan InfiniteM200 Pro microplate reader.

P. aeruginosa = assay: MIC of known DHFR inhibitors against P. aeruginosa; assay type: cell-based, Pseudomonas aeruginosa; conditions: strain not named
P. aeruginosa PA14 [1] = assay: In vivo PA14 murine thigh infection; conditions: neutropenic CD-1 mice, 24 h post infection; fluorofolin 25 mg kg^−1 subcutaneous and/or SMX 100 mg kg^−1 intraperitoneal at 1 and 12 h; one value per mouse
Text: For P. aeruginosa thigh infection model and maximum tolerated dose (MTD) studies, care and handling of female 5–6-week-old CD-1 conformed to Institutional Animal Care and Use Committee (IACUC) policies as carried out at the University of North Texas Health Science Center (Fort Worth, Texas) under UNTHSC IACUC-approved protocol nos. IACUC-2021-0003 and IACUC-2020-0039. Rodents were fed either base chow (Envigo) or base diet supplemented with 1.8 g kg^−1 thymidine (Sigma T9250) starting at 2 days before infection. All procedures were conducted in accordance with the UNTHSC IACUC-approved protocol. Animals were housed in rooms undergoing 10–15 air changes per hour. Air provided to the animal rooms was controlled for temperature and humidity and is fully monitored 24 h a day. Air pressure was balanced according to room use. Lighting was controlled in individual rooms by automatic timers with a standard 12 h on, 12 h off cycle.
Female 5–6-week-old CD-1 mice were rendered neutropenic by intraperitoneal cyclophosphamide treatment (Cytoxan) before this study. On day 0, mice were infected intramuscularly with 5.33 log c.f.u. per thigh PA14. Mice were treated subcutaneously with fluorofolin at 1 and 12 h post infection. For co-treatment, mice were treated with SMX intraperitoneally at 1 and 12 h post infection. […] In vivo efficacy was evaluated by the UNTHSC.

PA14 = assay: Checkerboard assay fluorofolin / sulfamethoxazole; assay type: cell-based, Pseudomonas aeruginosa; conditions: PA14, Fluorofolin 0 ug/mL
Procedure: Cells were seeded in a similar manner as described above for MIC calculations. […] Fractional inhibitory concentrations (FICs) were calculated as [[…], where [fluorofolin] and [SMX] are the concentrations of compounds in a given well, which were divided by the concentration of drug at the MIC for each compound.

Haemolysis = assay type: cell-based, sheep; conditions: sheep, defibrinated sheep red blood cells, 1 h, vs Triton X-100 100% lysis
Procedure: as §1

P. aeruginosa PA14 [2] = assay: Colony-forming units counting after antibiotic treatment; assay type: cell-based, Pseudomonas aeruginosa; conditions: 2× MIC (fluorofolin 6.2, TMP 250, polymixin B 4 μg ml^−1)
Procedure: P. aeruginosa PA14 overnight cultures were diluted 1:100 and grown to exponential phase (OD600 = 0.4–0.6). Cultures were diluted 1:10 and treated with antibiotic. At each time point, 150 μl of culture was removed, serial diluted 1:10 six times and plated onto LB agar plates. Plates were grown overnight at 37 °C, after which visible colonies were counted. C.f.u.s ml^−1 are reported from dilutions in which ~10–100 single colonies were visible.

[3] = test system: P. aeruginosa PA14 folate metabolism (dUMP, AICAR, GAR); assay: Metabolomics (LC–MS) of treated PA14; assay type: cell-based, Pseudomonas aeruginosa; conditions: PA14, 15 min
Procedure: Metabolites were extracted by vacuum filtering 15 ml of treated cells using 0.45 μm HNWP Millipore nylon membranes and placing the filters into an ice-cold quenching solution of 40:40:20 methanol:acetonitrile:H2O. Extracts were kept on dry ice for 1 h and centrifuged at 16,000 g for 1 h at 4 °C. The supernatant was kept at -80 °C until mass spectrometry analysis. Liquid chromatography-mass spectrometry (LC-MS) analysis of metabolites was performed on an Orbitrap Exploris 240 mass spectrometer coupled with hydrophilic interaction liquid chromatography (HILIC)[68]. […] Waters 196006724), with a gradient of solvent A (95 vol. % H2O, 5 vol. % acetonitrile, with 20 mM ammonium acetate and 20 mM ammonium hydroxide, pH 9.4) and solvent B (acetonitrile). Flow rate was 0.15 ml min^-1 and column temperature was set at 25 °C. […] Raw mass spectrometry data were converted to mzXML format by MSConvert (ProteoWizard). Pick-peaking was done on […].0.8.0, Elucidata).

[4] = test system: Pseudomonas aeruginosa PA14; assay: MIC against P. aeruginosa PA14 in LB broth; assay type: cell-based
Procedure: (§2) Overnight cultures were diluted 1:150 in LB broth and added to a 96-well plate. Antibiotics were serially diluted 1:2 and added to columns of the 96-well plate and grown at 37 °C with continuous shaking. Cell growth was measured using optical density at 600 nm (OD600). MIC assays were performed in either BioTek Synergy HT or Tecan InfiniteM200 Pro microplate readers.

P. aeruginosa PA14 [5] = assay type: cell-based, Pseudomonas aeruginosa; conditions: PA14, 0.25 h
Procedure: Overnight P. aeruginosa PA14 or E. coli lptD4213 cultures were diluted 1:100 and grown to mid exponential phase at 37 °C. Cultures were diluted 1:10 into PBS and treated with antibiotics for 15 min. P. aeruginosa PA14 was stained with TO-PRO-3 (640 nm excitation, 670/30 nm emission) to measure cell membrane integrity. E. coli lptD4213 was stained with both TO-PRO-3 and DiOC2(3) (ThermoFisher B34950) to measure cell membrane integrity and membrane potential. DiOC2(3) was evaluated as a ratio of green (488 nm excitation, 525/50 nm emission) to red (488 nm excitation, 610/20 nm emission)[66]. The LSRII flow cytometer (BD Biosciences) at the Flow Cytometry Resource Facility, Princeton University, was used to measure the fluorescent intensities of both dyes in response to antibiotic treatment. 100,000 events were recorded for each data file. Gates for permeabilization were determined using polymixin B (Sigma-Aldrich P1004) and untreated controls. Gates for depolarization were determined using carbonyl cyanide m-chlorophenyl hydrazone (CCCP) as a positive control. Data were analysed using FlowJo v.10 software.

[6] = test system: P. aeruginosa PA14 mexA transposon mutant; assay: microbe, parasite or virus in culture; assay type: cell-based; conditions: Pseudomonas aeruginosa
Procedure: as §2
(§3) P. aeruginosa PA14 transposon mutants were generated by the Ausubel Lab (https://pa14.mgh.harvard.edu/cgi-bin/pa14/home.cgi)[67]. The MICs of fluorofolin and TMP against strains with disrupted MexA, MexB and OprM were determined as above and compared to the parental strain. As transposon mutants in MexB were represented twice in this collection, the MIC was confirmed across both mutant strains.

[7] = test system: P. aeruginosa PA14 mexB transposon mutant; assay: microbe, parasite or virus in culture; assay type: cell-based; conditions: Pseudomonas aeruginosa
Procedure: as §2, §3

[8] = test system: P. aeruginosa PA14 oprM transposon mutant; assay: microbe, parasite or virus in culture; assay type: cell-based; conditions: Pseudomonas aeruginosa
Procedure: as §2, §3

[9] = 2× MIC (fluorofolin 6.3, TMP 250 μg ml^−1), one value per replicate

- MIC (P. aeruginosa): > 50 µg/mL
SMILES: Nc1nc(N)c2c(ccc3c2ccn3Cc2ccc(-c3ccccc3)cc2)n1 [IRS-16]
- % Hemolysis, Mean (sheep red blood cells; 0.78125 ug/mL): 6.068%
- % Hemolysis, Mean (sheep red blood cells; 1.5625 ug/mL): 12.9642%
- % Hemolysis, Mean (sheep red blood cells; 3.125 ug/mL): 26.947%
- % Hemolysis, Mean (sheep red blood cells; 6.25 ug/mL): 25.0196%
- % Hemolysis, Mean (sheep red blood cells; 12.5 ug/mL): 26.9567%
- % Hemolysis, Mean (sheep red blood cells; 25 ug/mL): 30.487%
- % Hemolysis, Mean (sheep red blood cells; 50 ug/mL): 39.1325%

SMILES: Cc1cc(NS(=O)(=O)c2ccc(N)cc2)no1 [SMX, Sulfamethoxazole, reference compound]
- PA14 load in thigh (P. aeruginosa PA14 [1]): 8.8 log 10(CFU/ mouse) and 8.33 log 10(CFU/ mouse) and 8.57 log 10(CFU/ mouse) and 7.94 log 10(CFU/ mouse)
- FIC index (PA14; SMX 625.00 ug/mL): 1
- FIC index (PA14; SMX 1250.00 ug/mL): 2

SMILES: COc1cc(Cc2cnc(N)nc2N)cc(OC)c1OC [Trimethoprim, trimethoprim, reference compound]
- hemolysis at 1 h, 0.78125 ug/mL (Haemolysis; 0.78125 ug/mL): 0.423%
- hemolysis at 1 h, 1.5625 ug/mL (Haemolysis; 1.5625 ug/mL): 0.123%
- hemolysis at 1 h, 3.125 ug/mL (Haemolysis; 3.125 ug/mL): 0.0766%
- hemolysis at 1 h, 6.25 ug/mL (Haemolysis; 6.25 ug/mL): 1.27%
- hemolysis at 1 h, 12.5 ug/mL (Haemolysis; 12.5 ug/mL): 0.258%
- hemolysis at 1 h, 25 ug/mL (Haemolysis; 25 ug/mL): 0.606%
- hemolysis at 1 h, 50 ug/mL (Haemolysis; 50 ug/mL): 4.08%
- PA14 CFU/mL, Mean (P. aeruginosa PA14 [2]; Time 0 h): 197000 CFU/mL
- PA14 CFU/mL, Mean (P. aeruginosa PA14 [2]; Time 1 h): 178000 CFU/mL
- PA14 CFU/mL, Mean (P. aeruginosa PA14 [2]; Time 2 h): 187000 CFU/mL
- PA14 CFU/mL, Mean (P. aeruginosa PA14 [2]; Time 4 h): 338889 CFU/mL
- change of AICAR and dUMP ([3]; 2× MIC): significant upregulation
- Normalized Ion Counts AICAR [3, 9]: 1099947 and 1907694 and 151411
- Normalized Ion Counts GAR [3, 9]: 163607 and 121038 and 24881.8
- Normalized Ion Counts dUMP [3, 9]: 2000000 and 3000000
- MIC ([4]; P. aeruginosa PA14): 125 µg/mL
- MIC ([4]; Pseudomonas aeruginosa, Wildtype PA14, control for each drug stock, read-out: MIC): 125 µg/mL
- Permeabilized (TO-PRO-3 gate) (P. aeruginosa PA14 [5]): 0.42
- MIC [6]: 50 µg/mL
- MIC [7]: 25 µg/mL
- MIC [8]: 25 µg/mL
